Reference: patent publication US20230085307A1, “PYRIDAZINONE COMPOUND AND HERBICIDE” (NISSAN CHEMICAL CORPORATION, priority 2019, published 2023)

Legend:
[1] = tested on: wild oat; experiment: Test Example 4: herbicidal effect by soil treatment (Table 19, symbol I); type: in vivo, wild oat (Avena fatua); details: amount of applied herbicide 320 g/ha
How it was run: (§1)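 Soil-surface application: an emulsion agent diluted with water to the predetermined dose is sprayed uniformly over seeds lying under roughly 1.5 cm of sterilized diluvial soil. Boxes stay in a greenhouse at 25° C. to 30° C. Three weeks later, each species is graded on previously defined criteria.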

[2] = tested on: redroot pigweed; experiment: Test Example 4: herbicidal effect by soil treatment (Table 19, symbol N); type: in vivo, redroot pigweed (Amaranthus retroflexus); details: amount of applied herbicide 320 g/ha
How it was run: as §1

[3] = tested on: velvetleaf; experiment: Test Example 4: herbicidal effect by soil treatment (Table 19, symbol M); type: in vivo, velvetleaf (Abutilon theophrasti); details: amount of applied herbicide 320 g/ha
How it was run: as §1

[4] = tested on: Italian ryegrass; experiment: Test Example 4: herbicidal effect by soil treatment (Table 19, symbol K); type: in vivo, Italian ryegrass (Lolium multiflorum); details: amount of applied herbicide 320 g/ha
How it was run: as §1

[5] = tested on: blackgrass; experiment: Test Example 4: herbicidal effect by soil treatment (Table 19, symbol J); type: in vivo, blackgrass (Alopecurus myosuroides); details: amount of applied herbicide 320 g/ha
How it was run: as §1

[6] = tested on: redroot pigweed; experiment: Test Example 5: herbicidal effect by foliage application, plastic box (Table 20, symbol N); type: in vivo, redroot pigweed (Amaranthus retroflexus); details: 320 g/ha, foliage application after 14-day growth, evaluated three weeks after application
How it was run: (§2)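 Sow seeds spot-wise in sterilized diluvial soil; cover with ~1.5 cm soil. Grow 14 days in greenhouse, 25° C. to 30° C. Spray foliage with emulsion diluted to predetermined amount. Rate effect after 3 weeks.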

[7] = tested on: southern crabgrass; experiment: Test Example 4: herbicidal effect by soil treatment (Table 19, symbol F); type: in vivo, southern crabgrass (Digitaria ciliaris); details: amount of applied herbicide 320 g/ha
How it was run: as §1

[8] = tested on: green foxtail; experiment: Test Example 5: herbicidal effect by foliage application, plastic box (Table 20, symbol G); type: in vivo, green foxtail (Setaria viridis); details: 320 g/ha, foliage application after 14-day growth, evaluated three weeks after application
How it was run: as §2

[9] = tested on: barnyard grass; experiment: Test Example 4: herbicidal effect by soil treatment (Table 19, symbol H); type: in vivo, barnyard grass (Echinochloa crus-galli); details: amount of applied herbicide 320 g/ha
How it was run: as §1

[10] = tested on: blackgrass; experiment: Test Example 5: herbicidal effect by foliage application, plastic box (Table 20, symbol J); type: in vivo, blackgrass (Alopecurus myosuroides); details: 320 g/ha, foliage application after 14-day growth, evaluated three weeks after application
How it was run: as §2

[11] = tested on: lambsquarters; experiment: Test Example 5: herbicidal effect by foliage application, plastic box (Table 20, symbol O); type: in vivo, lambsquarters (Chenopodium album); details: 320 g/ha, foliage application after 14-day growth, evaluated three weeks after application
How it was run: as §2

[12] = tested on: velvetleaf; experiment: Test Example 5: herbicidal effect by foliage application, plastic box (Table 20, symbol M); type: in vivo, velvetleaf (Abutilon theophrasti); details: 320 g/ha, foliage application after 14-day growth, evaluated three weeks after application
How it was run: as §2

[13] = tested on: barnyard grass; experiment: Test Example 3: herbicidal effect by foliage application, Wagner pot (Table 18, symbol H); type: in vivo, barnyard grass (Echinochloa crus-galli); details: 320 g/ha
How it was run: (§3)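 Plants were sown in alluvial soil held under 0.1–0.5 cm standing water and grown 14 days in a greenhouse at 25–30 °C. An emulsifiable formulation, water-diluted to the set dose, was then sprayed onto the foliage, and effects were scored three weeks later using previously defined criteria.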

[14] = tested on: chickweed; experiment: Test Example 4: herbicidal effect by soil treatment (Table 19, symbol P); type: in vivo, common chickweed (Stellaria media); details: amount of applied herbicide 320 g/ha
How it was run: as §1

[15] = tested on: persian speedwell; experiment: Test Example 5: herbicidal effect by foliage application, plastic box (Table 20, symbol R); type: in vivo, Persian speedwell (Veronica persica); details: 320 g/ha, foliage application after 14-day growth, evaluated three weeks after application
How it was run: as §2

[16] = tested on: chickweed; experiment: Test Example 5: herbicidal effect by foliage application, plastic box (Table 20, symbol P); type: in vivo, common chickweed (Stellaria media); details: 320 g/ha, foliage application after 14-day growth, evaluated three weeks after application
How it was run: as §2

[17] = tested on: lambsquarters; experiment: Test Example 4: herbicidal effect by soil treatment (Table 19, symbol O); type: in vivo, lambsquarters (Chenopodium album); details: amount of applied herbicide 320 g/ha
How it was run: as §1

[18] = tested on: green foxtail; experiment: Test Example 4: herbicidal effect by soil treatment (Table 19, symbol G); type: in vivo, green foxtail (Setaria viridis); details: amount of applied herbicide 320 g/ha
How it was run: as §1

[19] = tested on: windgrass; experiment: Test Example 4: herbicidal effect by soil treatment (Table 19, symbol L); type: in vivo, windgrass (Apera spica-venti); details: amount of applied herbicide 320 g/ha
How it was run: as §1

[20] = tested on: rice flat sedge; experiment: Test Example 3: herbicidal effect by foliage application, Wagner pot (Table 18, symbol E); type: in vivo, rice flat sedge (Cyperus iria); details: 320 g/ha
How it was run: as §3

[21] = tested on: persian speedwell; experiment: Test Example 4: herbicidal effect by soil treatment (Table 19, symbol R); type: in vivo, Persian speedwell (Veronica persica); details: amount of applied herbicide 320 g/ha
How it was run: as §1

[22] = tested on: barnyard grass; experiment: Test Example 5: herbicidal effect by foliage application, plastic box (Table 20, symbol H); type: in vivo, barnyard grass (Echinochloa crus-galli); details: 320 g/ha, foliage application after 14-day growth, evaluated three weeks after application
How it was run: as §2

[23] = tested on: southern crabgrass; experiment: Test Example 5: herbicidal effect by foliage application, plastic box (Table 20, symbol F); type: in vivo, southern crabgrass (Digitaria ciliaris); details: 320 g/ha, foliage application after 14-day growth, evaluated three weeks after application
How it was run: as §2

[24] = tested on: Chinese sprangletop; experiment: Test Example 3: herbicidal effect by foliage application, Wagner pot (Table 18, symbol D); type: in vivo, chinese sprangletop (Leptochloa chinensis); details: 320 g/ha
How it was run: as §3

[25] = tested on: wild oat; experiment: Test Example 5: herbicidal effect by foliage application, plastic box (Table 20, symbol I); type: in vivo, wild oat (Avena fatua); details: 320 g/ha, foliage application after 14-day growth, evaluated three weeks after application
How it was run: as §2

[26] = tested on: Italian ryegrass; experiment: Test Example 5: herbicidal effect by foliage application, plastic box (Table 20, symbol K); type: in vivo, Italian ryegrass (Lolium multiflorum); details: 320 g/ha, foliage application after 14-day growth, evaluated three weeks after application
How it was run: as §2

SMILES: Cc1nn(C)c(=O)c(-c2c(-c3ccc(F)cc3)sc3c(Cl)cccc23)c1O [4-015]
- Herbicidal effect by soil treatment, I: wild oat [1]: 0 (Herbicidal rate of 5% or less (almost no effect))
- Herbicidal effect by soil treatment, N: redroot pigweed [2]: 2 (Herbicidal rate of 20% or more and less than 40%)
- Herbicidal effect by soil treatment, M: velvetleaf [3]: 0 (Herbicidal rate of 5% or less (almost no effect))
- Herbicidal effect by soil treatment, K: Italian ryegrass [4]: 0 (Herbicidal rate of 5% or less (almost no effect))
- Herbicidal effect by soil treatment, J: blackgrass [5]: 0 (Herbicidal rate of 5% or less (almost no effect))
- herbicidal effect on N: redroot pigweed (evaluation grade 0-5) [6]: 1 (Herbicidal rate of 5% or more and less than 20%)
- Herbicidal effect by soil treatment, F: southern crabgrass [7]: 0 (Herbicidal rate of 5% or less (almost no effect))
- herbicidal effect on G: green foxtail (evaluation grade 0-5) [8]: 0 (Herbicidal rate of 5% or less (almost no effect))
- Herbicidal effect by soil treatment, H: barnyard grass [9]: 0 (Herbicidal rate of 5% or less (almost no effect))
- herbicidal effect on J: blackgrass (evaluation grade 0-5) [10]: 0 (Herbicidal rate of 5% or less (almost no effect))
- herbicidal effect on O: lambsquarters (evaluation grade 0-5) [11]: 1 (Herbicidal rate of 5% or more and less than 20%)
- herbicidal effect on M: velvetleaf (evaluation grade 0-5) [12]: 1 (Herbicidal rate of 5% or more and less than 20%)
- herbicidal effect on barnyard grass (H) [13]: 3 (Herbicidal rate of 40% or more and less than 70%)
- Herbicidal effect by soil treatment, P: chickweed [14]: 0 (Herbicidal rate of 5% or less (almost no effect))
- herbicidal effect on R: persian speedwell (evaluation grade 0-5) [15]: 4 (Herbicidal rate of 70% or more and less than 90%)
- herbicidal effect on P: chickweed (evaluation grade 0-5) [16]: 5 (Herbicidal rate of 90% or more (almost completely withered))
- Herbicidal effect by soil treatment, O: lambsquarters [17]: 3 (Herbicidal rate of 40% or more and less than 70%)
- Herbicidal effect by soil treatment, G: green foxtail [18]: 0 (Herbicidal rate of 5% or less (almost no effect))
- Herbicidal effect by soil treatment, L: windgrass [19]: 0 (Herbicidal rate of 5% or less (almost no effect))
- herbicidal effect on rice flat sedge (E) [20]: 5 (Herbicidal rate of 90% or more (almost completely withered))
- Herbicidal effect by soil treatment, R: persian speedwell [21]: 0 (Herbicidal rate of 5% or less (almost no effect))
- herbicidal effect on H: barnyard grass (evaluation grade 0-5) [22]: 0 (Herbicidal rate of 5% or less (almost no effect))
- herbicidal effect on F: southern crabgrass (evaluation grade 0-5) [23]: 0 (Herbicidal rate of 5% or less (almost no effect))
- herbicidal effect on Chinese sprangletop (D) [24]: 3 (Herbicidal rate of 40% or more and less than 70%)
- herbicidal effect on I: wild oat (evaluation grade 0-5) [25]: 0 (Herbicidal rate of 5% or less (almost no effect))
- herbicidal effect on K: Italian ryegrass (evaluation grade 0-5) [26]: 0 (Herbicidal rate of 5% or less (almost no effect))
